The text below walks through data of PubChem BioAssay (NCI).

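The compound was tested at five concentrations on cells cultured in 96-well plates, with a 48-hour exposure period. TGI denotes the concentration required for complete inhibition of growth.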 A value given as a limit tells only on which side of the number the result lay.

Among the test systems are SR leukemia; NCI-H522 lung; OVCAR-4 ovarian; K-562 leukemia; OVCAR-3 ovarian; HT29 colon; MALME-3M melanoma; CAKI-1 renal; SF-295 CNS; OVCAR-5 ovarian; A498 renal.
Common to all, as to test: growth of human tumour cells (NCI), 48 h

Take `CC1=CC=C2c3ccccc3C=CN2C(=O)C1`: the TGI in the experiment with SR leukemia, in the experiment with NCI-H522 lung, with OVCAR-4 ovarian, in the experiment with K-562 leukemia, in the experiment with OVCAR-3 ovarian and in the experiment with HT29 colon was more than 100 µM throughout. Also, the TGI with MALME-3M melanoma, in the experiment on CAKI-1 renal, in the experiment with SF-295 CNS and in the experiment with OVCAR-5 ovarian was more than 100 µM throughout.

Regarding `Cc1c(C#N)c(N)[nH]c(=S)c1C#N`, the TGI in the experiment with SR leukemia, in the experiment on NCI-H522 lung, in the experiment on K-562 leukemia, in the experiment on OVCAR-3 ovarian, with HT29 colon and in the experiment on MALME-3M melanoma was more than 100 µM each time. Also, the TGI in the experiment on A498 renal, in the experiment with CAKI-1 renal, in the experiment with SF-295 CNS and in the experiment with OVCAR-5 ovarian was more than 100 µM throughout.

Consider `COc1cccc(C(=O)Nc2c3ccccc3nc3ccccc23)c1OC`, for which the TGI in the experiment on SR leukemia was more than 100 µM; in the experiment with NCI-H522 lung, 89.9 µM; in the experiment with OVCAR-4 ovarian it was more than 100 µM; with K-562 leukemia, more than 100 µM; in the experiment on OVCAR-3 ovarian, more than 100 µM; in the experiment with HT29 colon, more than 100 µM. Also, the TGI in the experiment with MALME-3M melanoma, in the experiment on CAKI-1 renal, in the experiment on SF-295 CNS and in the experiment with OVCAR-5 ovarian was more than 100 µM in each case.

With `Cc1c(-c2ccccc2)[nH]c2ccc(Cl)cc2c1=O`, the TGI in the experiment with SR leukemia was more than 100 µM; in the experiment with NCI-H522 lung, more than 100 µM; in the experiment with OVCAR-4 ovarian, 59.7 µM; in the experiment on K-562 leukemia, more than 100 µM; in the experiment with OVCAR-3 ovarian, 72 µM; in the experiment on HT29 colon, more than 100 µM. Also, the TGI was 48.7 µM in the experiment with MALME-3M melanoma, 3.82 µM in the experiment on CAKI-1 renal, more than 100 µM in the experiment on SF-295 CNS and more than 100 µM with OVCAR-5 ovarian.

As for `CC(C)/C(Cl)=N/OC(=O)Nc1cccc(C(F)(F)F)c1`, the TGI is 3.12 µM in the experiment with SR leukemia; 0.951 µM in the experiment on NCI-H522 lung; 16.6 µM in the experiment on OVCAR-4 ovarian; 8.12 µM in the experiment with OVCAR-3 ovarian; 10.6 µM in the experiment with HT29 colon; 3.66 µM in the experiment with MALME-3M melanoma. Also, the TGI in the experiment with A498 renal worked out at 37.1 µM; in the experiment on CAKI-1 renal, 3.14 µM; with SF-295 CNS it was 33 µM; with OVCAR-5 ovarian, 34 µM.

`C=C[C@]1(O)CCC[C@]2(C)C(=O)CCC12C` (stereo not given in full): the TGI in the experiment on SR leukemia, with NCI-H522 lung, with OVCAR-4 ovarian, in the experiment with K-562 leukemia, in the experiment with OVCAR-3 ovarian and in the experiment on HT29 colon was more than 100 µM each time. Further, the TGI in the experiment with MALME-3M melanoma, in the experiment with A498 renal, in the experiment on SF-295 CNS and with OVCAR-5 ovarian was more than 100 µM in each case.

Consider `O=C(Nc1cc2c(=O)[nH]c3ccccc3c2oc1=O)c1cnccn1`, for which the TGI with SR leukemia, in the experiment on NCI-H522 lung, in the experiment with OVCAR-4 ovarian, in the experiment on K-562 leukemia, in the experiment with OVCAR-3 ovarian and in the experiment with HT29 colon was more than 100 µM in each case. Further, the TGI in the experiment on MALME-3M melanoma, with CAKI-1 renal, in the experiment on SF-295 CNS and in the experiment with OVCAR-5 ovarian was more than 100 µM in each case.

For `COc1ccc2c(c1)CCN=C2Cc1ccccc1CCCl`, the TGI in the experiment on SR leukemia was more than 100 µM; in the experiment on NCI-H522 lung, 58.4 µM; in the experiment on OVCAR-4 ovarian, more than 100 µM; with K-562 leukemia, more than 100 µM; in the experiment with OVCAR-3 ovarian, more than 100 µM; with HT29 colon, 55 µM. For the same molecule, the TGI in the experiment with A498 renal is more than 100 µM; in the experiment on CAKI-1 renal, 63.2 µM; in the experiment with SF-295 CNS it was more than 100 µM; with OVCAR-5 ovarian, more than 100 µM.

Consider `Cc1cc(N)ccc1N=Nc1ccc(S(=O)(=O)CCOS(=O)(=O)O)cc1`, for which the TGI was more than 100 µM with SR leukemia; 0.773 µM with NCI-H522 lung; 29 µM in the experiment on OVCAR-4 ovarian; 9.55 µM in the experiment on OVCAR-3 ovarian; 6.53 µM with HT29 colon; 20.5 µM in the experiment on MALME-3M melanoma. Further, the TGI is 31.1 µM in the experiment with A498 renal, 8.61 µM in the experiment with CAKI-1 renal, 9.21 µM in the experiment on SF-295 CNS and 26.4 µM in the experiment on OVCAR-5 ovarian.

Regarding `COc1ccc(/C=N/n2c(=O)[nH]c3ccccc3c2=O)cc1`, the TGI in the experiment on SR leukemia, in the experiment with K-562 leukemia, in the experiment with OVCAR-3 ovarian, in the experiment with HT29 colon, with A498 renal and in the experiment with CAKI-1 renal was more than 100 µM each time. The TGI in the experiment with SF-295 CNS and with OVCAR-5 ovarian was more than 100 µM each time.

Consider `CC(=O)OCc1ccc2oc(=O)c(C(=O)Oc3cccc(Cl)c3)cc2c1`, for which the TGI in the experiment with SR leukemia was more than 100 µM; in the experiment on NCI-H522 lung it was more than 100 µM; with OVCAR-4 ovarian, more than 100 µM; in the experiment with K-562 leukemia, 79.8 µM; in the experiment with OVCAR-3 ovarian it was more than 100 µM; in the experiment on HT29 colon, 80.2 µM. The TGI in the experiment on MALME-3M melanoma, with CAKI-1 renal, in the experiment with SF-295 CNS and in the experiment on OVCAR-5 ovarian was more than 100 µM in each case.

Turning to `CC1(C)C(C#N)=[N+]([O-])C(C)(C)N1O`, the TGI in the experiment with SR leukemia, in the experiment on OVCAR-4 ovarian, with K-562 leukemia, in the experiment on OVCAR-3 ovarian, with HT29 colon and in the experiment with MALME-3M melanoma was more than 100 µM throughout. The TGI in the experiment with CAKI-1 renal, in the experiment on SF-295 CNS and with OVCAR-5 ovarian was more than 100 µM throughout.

In the case of `Cc1nn2c(=O)c([N+](=O)[O-])c(/C=C/c3ccco3)nc2s1`, the TGI in the experiment on SR leukemia was 79.2 µM; in the experiment with NCI-H522 lung it was more than 100 µM; in the experiment on OVCAR-4 ovarian, more than 100 µM; in the experiment on K-562 leukemia, more than 100 µM; in the experiment on OVCAR-3 ovarian, more than 100 µM; in the experiment with HT29 colon, more than 100 µM. For the same molecule, the TGI in the experiment on MALME-3M melanoma, in the experiment on CAKI-1 renal, in the experiment on SF-295 CNS and with OVCAR-5 ovarian was more than 100 µM in each case.

Consider `O=C1CCCC2=C1CC1=C(CCCC1=O)N2c1ccccc1C(=O)O`, for which the TGI in the experiment with SR leukemia, in the experiment with OVCAR-4 ovarian, with K-562 leukemia, in the experiment on OVCAR-3 ovarian, with HT29 colon and with A498 renal was more than 100 µM each time. The TGI in the experiment on CAKI-1 renal and with OVCAR-5 ovarian was more than 100 µM in each case.
